Experimental data from the Kinase Knowledgebase extract (Sharma et al. 2016).

How the values were obtained:
[1] = target: MAPK14 (human) (UniProt Q16539); assay: Hydroxyurea-induced Hemoglobinization (K562 Cells); conditions: concentration not given here
[2] = target: MAPK14 (human) (UniProt Q16539); assay: Sodium butyrate-induced Hemoglobinization (K562 Cells); conditions: concentration not given here

Sequence of MAPK14 (human) (Q16539 whole entry, looked up): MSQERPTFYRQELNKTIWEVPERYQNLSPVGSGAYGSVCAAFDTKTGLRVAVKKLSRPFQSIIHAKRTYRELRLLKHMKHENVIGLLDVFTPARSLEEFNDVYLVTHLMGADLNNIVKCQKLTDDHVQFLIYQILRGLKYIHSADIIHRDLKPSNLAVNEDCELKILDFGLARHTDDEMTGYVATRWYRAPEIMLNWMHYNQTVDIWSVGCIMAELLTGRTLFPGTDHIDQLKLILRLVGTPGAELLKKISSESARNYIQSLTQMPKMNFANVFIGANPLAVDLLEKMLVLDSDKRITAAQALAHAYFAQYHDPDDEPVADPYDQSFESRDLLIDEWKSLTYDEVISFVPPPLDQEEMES

Row | cell count [1] [%] | cell count [2] [%] | Structure (SMILES)
1 | 54 | – | COc1cccc(-c2cc(=O)c3ccccc3o2)c1N.NC(=O)NO
2 | – | 39.8 | CCCC(=O)[O-].[Na+]
3 | 32.4 | – | COc1cccc(-c2cc(=O)c3ccccc3o2)c1N
